Experimental data as given in patent US20070167465A1, “Fungicidal mixtures” (BASF AKTIENGESELLSCHAFT, priority 2004, published 2007).

Tested on: Pyrenophora teres
Experiment: activity against net blotch of barley caused by Pyrenophora teres, 1-day-protective application
Type: in vivo, Pyrenophora [syn. Drechslera] teres on barley seedlings
Conditions: individual active compound, barley seedlings, assessed after 6 days
Procedure: The active compounds, separately or jointly, were prepared as a stock solution comprising 0.25% by weight of active compound in acetone or DMSO. 1% by weight of the emulsifier Uniperol® EL (wetting agent having emulsifying and dispersant action based on ethoxylated alkylphenols) was added to this solution, and the mixture was diluted with water to the desired concentration.
Use example—activity against net blotch of barley caused by Pyrenophora teres, 1-day-protective application.
Leaves of pot-grown barley seedlings were sprayed to run-off point with an aqueous suspension having the concentration of active compound stated below. 24 hours after the spray coating had dried on, the test plants were inoculated with an aqueous spore suspension of Pyrenophora [syn. Drechslera] teres, the causative agent of net blotch. The test plants were subsequently placed in a greenhouse at temperatures of between 20 and 24° C. and at 95 to 100% relative atmospheric humidity. After 6 days, the extent of development of the disease was determined visually in % infection of the total leaf area.
The visually determined percentages of infected leaf areas were converted into efficacies in % of the untreated control:
The efficacy (E) is calculated as follows using Abbot's formula: E=(1−α/β).100 α corresponds to the fungal infection of the treated plants in % and β corresponds to the fungal infection of the untreated (control) plants in %
An efficacy of 0 means that the infection level of the treated plants corresponds to that of the untreated control plants; an efficacy of 100 means that the treated plants were not infected.
The expected efficacies of mixtures of active compounds were determined using Colby's formula (Colby, S. R. “Calculating synergistic and antagonistic responses of herbicide combinations”, Weeds, 15, 20-22, 1967) and compared with the observed efficacies.
Colby's formula: E=x+y−x·y/100 • E expected efficacy, expressed in % of the untreated control, when using the mixture of the active compounds A and B at the concentrations a and b • x efficacy, expressed in % of the untreated control, when using the active compound A at the concentration a
y efficacy, expressed in % of the untreated control, when using the active compound B at the concentration b

Compound	Efficacy in % of the untreated control (1.25 ppm in the spray liquor)	Efficacy in % of the untreated control (0.25 ppm in the spray liquor)	Efficacy in % of the untreated control (6.25 ppm in the spray liquor)
CC1CCN(c2c(-c3c(F)cc(F)cc3F)c(Cl)nc3ncnn23)CC1 [I, 5-chloro-7-(4-methylpiperidin-1-yl)-6-(2,4,6-trifluorophenyl)-[1,2,4]triazolo[1,5-a]pyrimidine]	56 % of the untreated control	–	–
CC(C)NC(=O)N1CC(=O)N(c2cc(Cl)cc(Cl)c2)C1=O [II (iprodione), N-isopropyl-3-(3,5-dichlorophenyl)-2,4-dioxoimidazolidine-1-carboxamide]	0 % of the untreated control	0 % of the untreated control	0 % of the untreated control
